Data: patent publication US20220370440A1 (Lead Discovery Center GmbH, priority 2018, published 2022)
pIC50: −log10 of the molar value.

How the values were obtained:
[1] = biological target: EGFR Exon 20 INSNPH Ba/F3 (Homo sapiens, UniProt P00533, DUP771-773, cells depend on it); test: EGFR Exon 20 INSNPH Ba/F3 CellTiter-Glo; type: cell-based; conditions: CellTiter-Glo, 72 h, read-out: EGFR Exon 20 INSNPH Ba/F3 CTG IC50
Experimental: (§1) 2. Measurement of Cellular Activity
(§2) The CellTiter-Glo Luminescent Cell Viability Assay (Promega) is a homogeneous method of determining the number of viable cells in culture. It is based on quantification of ATP, indicating the presence of metabolically active cells. Cells are seeded on day 1 at cell numbers that assure assay linearity and optimal signal intensity. After incubation for 24 h in humidified chambers at 37° C. and 5% CO2, compounds in DMSO are added at different concentrations. Cells are further incubated for 72 h at 37° C. and 5% CO2. Cells treated with the compound vehicle DMSO are used as positive controls and cells treated with 10 μM Staurosporine serve as negative controls. At day 5 the CellTiter Glo Reagent is prepared according to the instructions of the kit (Promega Inc.): Reagent is mixed 1:1 with cell culture medium. Thereon, mixture and assay plates are equilibrated at room temperature for 20 min. Equal volumes of the reagent-medium-mixture is added to the volume of culture medium present in each well. The plates are mixed at ˜200 rpm for 2 minutes on an orbital shaker. The microplates are then incubated at room temperature for 10 minutes for stabilization of the luminescent signal. Following incubation the luminescence is recorded on a Victor microplate reader (Perkin Elmer) using a 200 ms integration time. The data is then analyzed with Excel using the XLFIT Plugin (dose response Fit 205) for IC50-determination. As quality control the Z′-factor is calculated from 16 positive and negative control values. Only assay results showing a Z′-factor ≥0.5 are used for further analysis.
(§3) Inhibition is indicated as IC50 [nM] (“−”=not measured). Compounds having an activity designated as “A” provided an IC50≤100 nM; compounds having an activity designated as “B” provided an 100 nM<IC50≤500 nM; compounds having an activity designated as “C” provided an 500 nM<IC50≤1000 nM; compounds having an activity designated as “D” provided an 1000 nM<IC50≤10000 nM; and compounds having an activity designated as “E” provided an IC50>10000 nM.

HER2 INS YVMA = biological target: T1, HER2 INS YVMA (Homo sapiens, UniProt P04626, INS775YVMA); test: Lance Kinase Activity Assay, HER2 INS YVMA (Her2 Exon 20 INSYVMA Lance); type: biochemical; conditions: biochemical Lance assay
T1 construct: purchased DPF
Experimental: 1. Measurement of HER2 INS YVMA Kinase Activity
This protocol describes how the Lance Kinase Activity Assay was performed to determine IC50 values of compounds of general formula (I) against HER2 INS YVMA. The principle behind this enzymatic assay is based upon the phosphorylation of the Ulight-peptide substrate. It is detected by using a specific EU-labeled anti-phospho peptide antibody. The binding of the Eu labeled anti-phospho peptide antibody to the phosphorylated ULight labeled peptide gives rise to a FRET-signal.
Binding of an inhibitor to the kinase prevents phosphorylation of the Ulight-substrate, resulting in a loss of FRET. In table 2 is summarized the relevant information for the LANCE assay.
The compounds of general formula (I) summarized in Table 3 were serial diluted from a 10 mM DMSO stock solution 1:3 over 8 steps in a total volume of 20 μl.
For every sample, 8 μl of kinase-substrate mix was transferred into a suitable assay plate (e.g. Corning #3673). Compound was added via pintool transfer (10 nl/well) using a Biomek FX robot (BeckmanCoulter). Reaction was started by addition of 2 μl ATP working solution and mixed using variomag teleshaker (Thermo Fischer Scientific). After 1 h incubation at room temperature the reaction was stopped with 10 μl detection mix containing the Eu-labeled phosphospecific antibody and 10 mM EDTA. After a second incubation period of 1 h at room temperature the FRET signal was measured at 340 nm excitation, 665 nm and 615 nm emission (for the ULight-substrate and Eu-AB, respectively) with an Envision spectrophotometer (Perkin Elmer, Waltham, Mass., USA) with 50 μs delay and 300 μs integration time. IC50 values were determined from the sigmoidal dose response curves with the software Quattro Workflow (Quattro GmbH, Munich, Germany).

EGFR wt = EGFR wt (Homo sapiens, UniProt P00533); test: EGFR wt Lance assay; type: biochemical
Experimental: (§4) Inhibition is indicated as […] [nM] (“−”=not measured). Compounds having an activity designated as “A” provided an IC50≤100 nM; compounds having an activity designated as “B” provided an 100 nM<IC50≤500 nM; compounds having an activity designated as “C” provided an 500 nM<IC50≤1000 nM; compounds having an activity designated as “D” provided an 1000 nM<IC50≤100000 nM; and compounds having an activity designated as “E” provided an IC50>10000 nM.

EGFR T790ML858R = EGFR T790ML858R (Homo sapiens, UniProt P00533, L858R/T790M); test: EGFR T790ML858R Lance assay; type: biochemical
Experimental: as §4

H1975 = H1975 CellTiter-Glo; type: cell-based; conditions: Homo sapiens, NCI-H1975; 72 h compound incubation; read-out: H1975 CTG IC50
Experimental: as §1, §2, §4

A431 = A431 CellTiter-Glo; type: cell-based; conditions: Homo sapiens, A-431; 72 h compound incubation; read-out: A431 CTG IC50
Experimental: as §1, §2, §4

[2] = biological target: Her2 Exon 20 INSYVMA Ba/F3 (Homo sapiens, UniProt P04626, DUP772-775, cells depend on it); test: Her2 Exon 20 INSYVMA Ba/F3 CellTiter-Glo; type: cell-based; conditions: CellTiter-Glo, 72 h, read-out: Her2 Exon 20 INSYVMA Ba/F3 CTG IC50
Experimental: as §1, §2, §3

Sequence of EGFR wt (P00533 25-1210): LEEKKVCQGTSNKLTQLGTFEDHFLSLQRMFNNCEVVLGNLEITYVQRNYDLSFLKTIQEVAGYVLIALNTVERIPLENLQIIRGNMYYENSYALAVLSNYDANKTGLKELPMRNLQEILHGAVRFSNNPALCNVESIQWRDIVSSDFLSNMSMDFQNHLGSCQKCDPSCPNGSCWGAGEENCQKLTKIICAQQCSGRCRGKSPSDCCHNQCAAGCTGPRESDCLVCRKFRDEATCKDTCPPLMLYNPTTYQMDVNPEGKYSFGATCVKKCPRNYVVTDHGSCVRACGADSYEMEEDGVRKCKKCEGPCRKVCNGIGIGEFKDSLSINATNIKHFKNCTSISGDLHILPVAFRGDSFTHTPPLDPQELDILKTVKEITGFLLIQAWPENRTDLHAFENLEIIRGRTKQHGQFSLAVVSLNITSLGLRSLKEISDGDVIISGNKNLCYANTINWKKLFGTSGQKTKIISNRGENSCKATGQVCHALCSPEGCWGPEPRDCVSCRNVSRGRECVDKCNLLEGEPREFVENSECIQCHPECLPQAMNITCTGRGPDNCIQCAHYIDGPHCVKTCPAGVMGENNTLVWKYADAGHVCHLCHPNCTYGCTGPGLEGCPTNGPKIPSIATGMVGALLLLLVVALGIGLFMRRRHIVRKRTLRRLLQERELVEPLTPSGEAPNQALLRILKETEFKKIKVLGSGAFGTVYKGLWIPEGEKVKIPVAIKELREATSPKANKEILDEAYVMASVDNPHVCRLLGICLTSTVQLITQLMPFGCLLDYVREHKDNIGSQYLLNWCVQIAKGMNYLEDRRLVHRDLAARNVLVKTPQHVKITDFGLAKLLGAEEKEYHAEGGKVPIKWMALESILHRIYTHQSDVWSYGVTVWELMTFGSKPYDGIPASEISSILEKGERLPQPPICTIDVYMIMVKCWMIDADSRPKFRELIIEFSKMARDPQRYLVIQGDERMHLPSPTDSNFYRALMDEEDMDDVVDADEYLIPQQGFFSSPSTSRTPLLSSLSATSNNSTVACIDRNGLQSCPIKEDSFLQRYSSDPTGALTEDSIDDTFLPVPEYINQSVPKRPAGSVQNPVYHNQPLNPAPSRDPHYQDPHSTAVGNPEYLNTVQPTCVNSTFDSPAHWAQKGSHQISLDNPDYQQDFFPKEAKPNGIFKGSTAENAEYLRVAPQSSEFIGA
Sequence of EGFR T790ML858R (P00533 25-1210 T790M/L858R): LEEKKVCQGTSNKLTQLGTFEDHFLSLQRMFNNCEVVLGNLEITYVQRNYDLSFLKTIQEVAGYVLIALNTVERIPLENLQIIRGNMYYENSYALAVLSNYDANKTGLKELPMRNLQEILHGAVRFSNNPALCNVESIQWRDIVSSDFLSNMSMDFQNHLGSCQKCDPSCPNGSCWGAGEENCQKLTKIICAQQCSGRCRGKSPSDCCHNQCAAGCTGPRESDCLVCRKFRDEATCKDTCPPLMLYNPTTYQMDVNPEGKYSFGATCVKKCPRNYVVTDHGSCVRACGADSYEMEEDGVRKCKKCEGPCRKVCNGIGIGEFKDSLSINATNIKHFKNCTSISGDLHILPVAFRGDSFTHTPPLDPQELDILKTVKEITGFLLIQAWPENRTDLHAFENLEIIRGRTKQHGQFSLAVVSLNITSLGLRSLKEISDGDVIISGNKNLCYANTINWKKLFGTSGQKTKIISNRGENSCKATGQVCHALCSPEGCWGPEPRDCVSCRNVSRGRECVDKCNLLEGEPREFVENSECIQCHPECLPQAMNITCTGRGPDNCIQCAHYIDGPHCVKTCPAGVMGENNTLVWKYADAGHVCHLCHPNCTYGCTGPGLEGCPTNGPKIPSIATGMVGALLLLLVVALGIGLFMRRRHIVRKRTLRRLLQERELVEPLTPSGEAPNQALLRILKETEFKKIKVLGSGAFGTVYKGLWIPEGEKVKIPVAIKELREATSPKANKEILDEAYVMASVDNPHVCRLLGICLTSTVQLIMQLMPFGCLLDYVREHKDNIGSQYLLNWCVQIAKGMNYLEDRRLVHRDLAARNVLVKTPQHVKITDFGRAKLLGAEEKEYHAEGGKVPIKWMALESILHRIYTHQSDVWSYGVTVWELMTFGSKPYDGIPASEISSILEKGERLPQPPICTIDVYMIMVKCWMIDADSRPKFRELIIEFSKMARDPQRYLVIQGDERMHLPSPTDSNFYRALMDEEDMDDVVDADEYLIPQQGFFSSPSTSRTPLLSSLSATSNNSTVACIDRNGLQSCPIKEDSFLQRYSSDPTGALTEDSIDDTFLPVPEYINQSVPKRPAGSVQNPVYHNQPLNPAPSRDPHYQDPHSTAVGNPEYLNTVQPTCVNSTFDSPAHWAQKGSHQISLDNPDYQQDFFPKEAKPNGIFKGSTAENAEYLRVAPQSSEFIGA
Sequence of Her2 Exon 20 INSYVMA Ba/F3 (P04626 with tags, fused parts or gaps DUP772-775): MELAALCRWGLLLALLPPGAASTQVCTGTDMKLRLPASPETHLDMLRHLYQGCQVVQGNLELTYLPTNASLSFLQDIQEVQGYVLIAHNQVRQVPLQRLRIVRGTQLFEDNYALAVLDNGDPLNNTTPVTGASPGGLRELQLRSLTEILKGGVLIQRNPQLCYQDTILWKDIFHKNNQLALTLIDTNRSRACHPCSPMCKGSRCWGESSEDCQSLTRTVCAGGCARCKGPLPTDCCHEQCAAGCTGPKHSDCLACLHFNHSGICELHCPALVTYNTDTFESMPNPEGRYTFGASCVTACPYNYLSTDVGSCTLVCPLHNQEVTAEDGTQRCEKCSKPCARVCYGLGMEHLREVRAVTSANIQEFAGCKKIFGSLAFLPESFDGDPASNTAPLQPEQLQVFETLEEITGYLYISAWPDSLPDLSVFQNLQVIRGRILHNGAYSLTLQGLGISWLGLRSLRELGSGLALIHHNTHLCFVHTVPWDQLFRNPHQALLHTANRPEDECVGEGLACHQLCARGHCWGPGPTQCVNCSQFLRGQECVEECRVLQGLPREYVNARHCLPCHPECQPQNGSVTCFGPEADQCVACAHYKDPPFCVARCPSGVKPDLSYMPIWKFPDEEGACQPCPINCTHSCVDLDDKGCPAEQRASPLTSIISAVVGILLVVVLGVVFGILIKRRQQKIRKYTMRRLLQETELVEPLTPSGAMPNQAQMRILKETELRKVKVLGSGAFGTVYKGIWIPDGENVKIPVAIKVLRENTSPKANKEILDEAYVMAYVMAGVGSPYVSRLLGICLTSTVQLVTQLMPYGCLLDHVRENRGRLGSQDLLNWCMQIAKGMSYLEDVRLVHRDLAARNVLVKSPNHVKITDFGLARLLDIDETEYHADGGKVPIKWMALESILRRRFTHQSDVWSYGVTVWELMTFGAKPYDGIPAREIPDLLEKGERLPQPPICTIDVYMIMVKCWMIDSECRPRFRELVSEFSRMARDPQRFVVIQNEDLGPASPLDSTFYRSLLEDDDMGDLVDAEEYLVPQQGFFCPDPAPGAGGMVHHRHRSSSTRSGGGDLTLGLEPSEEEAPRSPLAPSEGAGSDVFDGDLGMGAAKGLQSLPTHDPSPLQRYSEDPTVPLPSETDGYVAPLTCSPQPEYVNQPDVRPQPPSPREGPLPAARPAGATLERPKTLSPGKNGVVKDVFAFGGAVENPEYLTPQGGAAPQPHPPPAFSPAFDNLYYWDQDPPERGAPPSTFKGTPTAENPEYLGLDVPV
T1 sequence (P04626 with tags, fused parts or gaps INS775YVMA): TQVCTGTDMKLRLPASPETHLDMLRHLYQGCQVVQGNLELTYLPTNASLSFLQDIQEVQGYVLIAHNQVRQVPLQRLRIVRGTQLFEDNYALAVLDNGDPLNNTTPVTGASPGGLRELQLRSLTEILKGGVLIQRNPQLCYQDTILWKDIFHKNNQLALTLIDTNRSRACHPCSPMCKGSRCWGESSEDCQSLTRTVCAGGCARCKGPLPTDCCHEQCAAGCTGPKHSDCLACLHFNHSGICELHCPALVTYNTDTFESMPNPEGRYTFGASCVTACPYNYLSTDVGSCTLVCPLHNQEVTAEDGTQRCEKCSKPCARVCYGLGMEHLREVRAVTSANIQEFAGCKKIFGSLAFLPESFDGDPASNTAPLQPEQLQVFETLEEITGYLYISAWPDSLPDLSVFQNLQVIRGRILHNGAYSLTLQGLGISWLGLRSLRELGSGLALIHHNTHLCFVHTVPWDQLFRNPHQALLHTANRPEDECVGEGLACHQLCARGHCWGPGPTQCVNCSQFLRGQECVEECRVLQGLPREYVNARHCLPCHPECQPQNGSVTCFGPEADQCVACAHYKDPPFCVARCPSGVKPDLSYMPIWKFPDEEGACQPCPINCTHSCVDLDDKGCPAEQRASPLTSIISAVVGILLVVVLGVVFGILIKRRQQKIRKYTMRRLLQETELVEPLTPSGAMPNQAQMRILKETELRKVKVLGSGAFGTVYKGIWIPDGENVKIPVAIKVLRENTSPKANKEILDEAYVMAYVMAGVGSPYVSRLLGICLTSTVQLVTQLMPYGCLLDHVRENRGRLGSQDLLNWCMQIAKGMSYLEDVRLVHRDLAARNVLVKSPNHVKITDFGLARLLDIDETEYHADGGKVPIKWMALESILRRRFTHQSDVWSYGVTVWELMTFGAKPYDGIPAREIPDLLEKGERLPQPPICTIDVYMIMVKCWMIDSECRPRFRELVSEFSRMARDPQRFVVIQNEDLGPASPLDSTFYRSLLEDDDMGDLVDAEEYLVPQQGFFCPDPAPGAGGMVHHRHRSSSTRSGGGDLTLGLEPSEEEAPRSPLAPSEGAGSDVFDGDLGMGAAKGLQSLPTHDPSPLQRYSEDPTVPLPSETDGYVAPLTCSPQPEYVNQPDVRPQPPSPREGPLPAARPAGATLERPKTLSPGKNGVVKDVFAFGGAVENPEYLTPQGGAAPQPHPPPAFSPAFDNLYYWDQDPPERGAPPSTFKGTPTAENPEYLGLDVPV

GI50 [1] [nM]	pIC50 (HER2 INS YVMA)	pIC50 (EGFR wt)	pIC50 (EGFR T790ML858R)	pIC50 (H1975)	pIC50 (A431)	GI50 [2] [nM]	SMILES
100 to 500	≥ 7.00	≥ 7.00	≥ 7.00	6.30 to 7.00	6.00 to 6.30	100 to 500	C=CC(=O)N1CCCc2ccc(-c3c(-c4ccc(CN5CCN(C)CC5)nc4)[nH]c4nccc(Cl)c34)cc21 [Example 89, 1-(7-(4-chloro-2-(6-((4-methylpiperazin-1-yl)methyl)pyridin-3-yl)-1H-pyrrolo[2,3-b]pyridin-3-yl)-3,4-dihydroquinolin-1(2H)-yl)prop-2-en-1-one]
100 to 500	≥ 7.00	≥ 7.00	≥ 7.00	6.30 to 7.00	4.00 to 6.00	100 to 500	C=CC(=O)Nc1cc(-c2c(-c3ccc(N4CCN(C)CC4)cc3)[nH]c3ncc(OC(F)(F)F)cc23)ccc1C [Example 188, N-(2-methyl-5-(2-(4-(4-methylpiperazin-1-yl)phenyl)-5-(trifluoromethoxy)-1H-pyrrolo[2,3-b]pyridin-3-yl)phenyl)acrylamide 2,2,2-trifluoroacetate]
> 10000	6.30 to 7.00	≥ 7.00	6.30 to 7.00	< 5.00	< 5.00	> 10000	C=CC(=O)Nc1cc(-c2c(-c3ccc(N4CCN(C)CC4)cc3)[nH]c3ncc(C(=O)NCc4nncn4C)cc23)ccc1C [Example 130, 3-(3-acrylamido-4-methylphenyl)-N-((4-methyl-4H-1,2,4-triazol-3-yl)methyl)-2-(4-(4-methylpiperazin-1-yl)phenyl)-1H-pyrrolo[2,3-b]pyridine-5-carboxamide]
100 to 500	≥ 7.00	≥ 7.00	≥ 7.00	≥ 7.00	6.30 to 7.00	100 to 500	C=CC(=O)N1CCc2ccc(-c3c(-c4ccnc(N5CCN(C)CC5)c4)[nH]c4nccc(OCC)c34)cc21 [Example 105]
500 to 1000	6.30 to 7.00	≥ 7.00	6.30 to 7.00	4.00 to 6.00	4.00 to 6.00	1000 to 10000	C=CC(=O)Nc1cc(-c2c(-c3ccc(OCCO)cc3)[nH]c3ncc(C(=O)OC(C)C)cc23)ccc1C [Example 178, isopropyl 3-(3-acrylamido-4-methylphenyl)-2-(4-(2-hydroxyethoxy)phenyl)-1H-pyrrolo[2,3-b]pyridine-5-carboxylate]
100 to 500	≥ 7.00	≥ 7.00	≥ 7.00	6.00 to 6.30	4.00 to 6.00	500 to 1000	C=CC(=O)Nc1cc(-c2c(-c3ccc(N4CCN(C)CC4)nc3)[nH]c3ncc(C(=O)OC(C)C)cc23)cc(F)c1C [Example 174, isopropyl 3-(3-acrylamido-5-fluoro-4-methylphenyl)-2-(6-(4-methylpiperazin-1-yl)pyridin-3-yl)-1H-pyrrolo[2,3-b]pyridine-5-carboxylate]
100 to 500	≥ 7.00	≥ 7.00	≥ 7.00	≥ 7.00	6.00 to 6.30	500 to 1000	C=CC(=O)Nc1cc(-c2c(-c3ccc(N4CCN(C)CC4)cc3)[nH]c3nccc(Cl)c23)cc(C)c1C [Example 150, N-(5-(4-chloro-2-(4-(4-methylpiperazin-1-yl)phenyl)-1H-pyrrolo[2,3-b]pyridin-3-yl)-2,3-dimethylphenyl)acrylamide 2,2,2-trifluoroacetate]
1000 to 10000	≥ 7.00	≥ 7.00	≥ 7.00	4.00 to 6.00	4.00 to 6.00	1000 to 10000	C=CC(=O)Nc1cc(-c2c(-c3ccc(N4CCN(C)CC4)cc3)[nH]c3ncc(C(=O)NCc4cccnc4)cc23)ccc1C [Example 128, 3-(3-acrylamido-4-methylphenyl)-2-(4-(4-methylpiperazin-1-yl)phenyl)-N-(pyridin-3-ylmethyl)-1H-pyrrolo[2,3-b]pyridine-5-carboxamide]
100 to 500	≥ 7.00	≥ 7.00	≥ 7.00	6.30 to 7.00	4.00 to 6.00	100 to 500	C=CC(=O)Nc1cc(-c2c(-c3ccc(N4CCN(C)CC4)cc3)[nH]c3ncc(C(=O)OC4CCC4)cc23)ccc1C [Example 136, cyclobutyl 3-(3-acrylamido-4-methylphenyl)-2-(4-(4-methylpiperazin-1-yl)phenyl)-1H-pyrrolo[2,3-b]pyridine-5-carboxylate]
> 10000	6.30 to 7.00	≥ 7.00	≥ 7.00	< 5.00	< 5.00	> 10000	C=CC(=O)Nc1cc(-c2c(-c3ccc(N4CCN(C)CC4)cc3)[nH]c3ncc(C(=O)NCc4cccc(S(N)(=O)=O)c4)cc23)ccc1C [Example 126, 3-(3-acrylamido-4-methylphenyl)-2-(4-(4-methylpiperazin-1-yl)phenyl)-N-(3-sulfamoylbenzyl)-1H-pyrrolo[2,3-b]pyridine-5-carboxamide]
100 to 500	≥ 7.00	≥ 7.00	≥ 7.00	6.00 to 6.30	4.00 to 6.00	100 to 500	C=CC(=O)Nc1cc(-c2c(-c3ccnc(N4CCN(C)CC4)c3)[nH]c3ncc(C(=O)OC(C)C)cc23)ccc1C [Example 156, isoproyl 3-(3-acrylamido-4-methylphenyl)-2-(2-(4-methylpiperazin-1-yl)pyridin-4-yl)-1H-pyrrolo[2,3-b]pyridine-5-carboxylate 2,2,2-trifluoroacetate]
100 to 500	≥ 7.00	≥ 7.00	≥ 7.00	6.30 to 7.00	4.00 to 6.00	≤ 100	C=CC(=O)Nc1cc(-c2c(-c3ccc(N4CCN(C)CC4)cc3)[nH]c3ncc(OCC)cc23)ccc1C [Example 193, N-(5-(5-ethoxy-2-(4-(4-methylpiperazin-1-yl)phenyl)-1H-pyrrolo[2,3-b]pyridin-3-yl)-2-methylphenyl)acrylamide 2,2,2-trifluoroacetate]
100 to 500	≥ 7.00	≥ 7.00	≥ 7.00	≥ 7.00	6.00 to 6.30	100 to 500	C=CC(=O)N1CCc2ccc(-c3c(-c4ccc(OCCN5CCCC5)cc4)[nH]c4nccc(OCC)c34)cc21 [Example 107, 1-(6-(4-ethoxy-2-(4-(2-(pyrrolidin-1-yl)ethoxy)phenyl)-1H-pyrrolo[2,3-b]pyridin-3-yl)indolin-1-yl)prop-2-en-1-one]
